Data published in patent US11672802B2, “Induction of immune tolerance by using methotrexate” (Genzyme Corporation, priority 2011, dated 2023).
“Also recorded” adds a separate entry of the source.

How the values were obtained:
[1] = tested on: allogeneic heart transplant; assay: Murine allogeneic heart transplant model, graft survival; type: in vivo, mice (C57BL/6 donor, Balb/c recipient); settings: treatment alone
Method: (§1) Polyclonal antibody mATG was administered as an intraperitoneal injection of 5 mg/kg every four weeks or as two 20 mg/kg doses given four days apart when in the transplant setting with the first dose given on the day of transplant (day 0).
C57BL/6 and BALB/c mice were obtained from Charles River (Kingston, N.Y. or Raleigh, N.C.) and used in these experiments between 8 and 13 weeks of age. The donor allogenic C57BL/6 mice were first anesthetized with an intraperitoneal injection of Ketamine (Fort Dodge Animal Health/Pfizer, Fort Dodge, Iowa) and Xylazine (Lloyd, Shenandoah, Iowa) and a median sternotomy was performed. […] The ascending aorta and pulmonary artery were then transected, the graft removed from the donor and the heart was stored in ice-cold saline until engraftment. A recipient mouse (Balb/c) was similarly anesthetized and prepped as described above for donor mice, except that the abdominal cavity was opened. […] After hemostasis was confirmed, the abdominal muscle was closed with a running 5-O Vicryl suture (Ethicon, Johnson & Johnson, Somerville, N.J.), and the skin closed with running 5-0 Ethilon suture (Ethicon). Standard post-op pain assessment and management was performed. Grafts were assessed by palpation 5-7 times per week for the first 30 day, and then 3-4 times per week until the end of the study.

anti-mATG IgG = assay: Anti-mATG (anti-rabbit) IgG ELISA titers in mice treated with mATG; type: in vivo, C57BL/6 mice; set-up: reduction of anti-mATG antibody responses, area under the effect curves / reduction of anti-mATG IgG titers, area under the effect curves / reduction of anti-mATG IgG titers: concentration or dose not given beside the values
Method: (§2) The levels of anti-mATG IgG in mouse serum were analyzed by enzyme linked immunosorbent assay (ELISA). […] End-point titers were defined as the […] dilution that averages above an absorbance of 0.100 using Softmax software (Molecular Devices, Sunnyvale, Calif., USA).

anti-mATG antibody = assay: Anti-mATG titers in cardiac allograft transplant mice; type: in vivo; settings: seven days following transplant, mice treated with methotrexate and mATG
Method: as §1, §2
C57BL/6 and BALB/c mice were obtained from Charles River (Kingston, N.Y. or Raleigh, N.C.) and used in these experiments between 8 and 13 weeks of age. The donor allogenic C57BL/6 mice were first anesthetized with an intraperitoneal injection of Ketamine (Fort Dodge Animal Health/Pfizer, Fort Dodge, Iowa) and Xylazine (Lloyd, Shenandoah, Iowa) and a median sternotomy was performed. […] The ascending aorta and pulmonary artery were then transected, the graft removed from the donor and the heart was stored in ice-cold saline until engraftment. A recipient mouse (Balb/c) was similarly anesthetized and prepped as described above for donor mice, except that the abdominal cavity was opened. […] Grafts were assessed by palpation 5-7 times per week for the first 30 day, and then 3-4 times per week until the end of the study.

[2] = tested on: cytokines (BAFF, TNF-alpha, MCP-1, IL-13, IL-6, IL-12); assay: Serum cytokine levels in alemtuzumab-treated mice; type: in vivo, huCD52 Tg mice
[3] = tested on: CD4+ and CD8+ T cells, T regulatory cells, B cells; assay: Flow cytometry of lymphocyte populations in mATG-treated mice; type: in vivo, C57BL/6 mice
Method: For splenocyte and lymph node cell preparations single-cell suspensions were generated from harvested mouse spleens or inguinal and mesenteric lymph nodes by homogenization between frosted glass slides into PBS containing 2% FCS. For splenocyte preparations, red blood cells were lysed by 1-2 minute incubation with a red blood cell lysis solution (BD Biosciences, San Diego, Calif.). Blood was isolated by retro-orbital bleeding and cell preparations were performed by lysing red blood cells with red blood cell lysing solution (BD Biosciences) for 20-30 minutes. For all tissue preparations, live cells were enumerated using the ViCell automated counter (Beckman Coulter, Fullerton, Calif.). Following isolation, all cell preparations were washed with PBS/2% FCS prior to use in the assays described below.
For evaluation of cell populations within different tissues, single cell suspensions of the tissues were incubated with fluorochrome-conjugated antibodies that included anti-mouse CD4, CD8, CD25, CD44, CD62L (all antibodies from BD Biosciences or eBioscience, San Diego, Calif.). Intracellular Foxp3 expression analysis was performed according to the anti-Foxp3 manufacturer's protocol (eBiosciences, San Diego, Calif.). Following incubation with the antibodies, cells were washed and analyzed by flow cytometry (FACSCanto, BD Biosciences and FCS Express software, De Novo Software, Los Angeles, Calif.).

[4] = tested on: anti-allograft antibodies; assay: Serum alloantibody levels (binding to allogeneic fibroblasts); type: in vivo, mice; settings: day 21, allogeneic heart transplant
Method: Serum alloantibody levels were determined by incubating serum from cardiac transplanted or normal mice at 1:50 dilutions with an SV40 transformed C57BL/6 fibroblast line (SVB6) followed by detection of fibrobast bound antibodies (alloantibodies) using FITC rabbit anti-mouse IgG (Dako, Carpinteria, Calif.) and by flow cytometric analysis. Geometric mean fluorescent intensities of serum stained fibroblasts were divided by isotype control stained fibroblasts to normalize alloantibody levels between experiments.

CN(Cc1cnc2nc(N)nc(N)c2n1)c1ccc(C(=O)N[C@@H](CCC(=O)O)C(=O)O)cc1 [methotrexate, Methotrexate]
average extended graft survival [1]: 20 days
reduction of anti-mATG IgG titers (anti-mATG IgG; a single course of methotrexate): > 95%
anti-mATG (anti-rabbit IgG) titer lower than with mATG alone (anti-mATG IgG; mATG and a single cycle of methotrexate vs mATG alone): 100 fold
suppression of anti-mATG IgG responses, area under the effect curves (anti-mATG IgG; methotrexate 5 mg/kg ip six consecutive days, mATG 25 mg/kg x2, 3 days apart, through eight weeks): 95%
reduction of anti-mATG IgG titers, area under the effect curves (anti-mATG IgG; single course of methotrexate, mATG re-challenge after eight weeks rest): 99%
anti-mATG IgG titer (anti-mATG IgG; single cycle of methotrexate around first of five monthly mATG treatments): approximately 50,000
long-lived reduction in ADA (anti-mATG IgG; single cycle of methotrexate within first week of a protein therapy, over many months of dosing (summary statement)): greater than 95%
reduction of anti-mATG IgG titers, area under the effect curves (anti-mATG IgG; single cycle regimen, five monthly mATG (FIG. 4C)): 98%
reduction of anti-mATG IgG titers, area under the effect curves (anti-mATG IgG; three cycle regimen, five monthly mATG (FIG. 4C)): 69%
reduction of anti-mATG IgG titers, area under the effect curves (anti-mATG IgG; three cycle regimen, mATG re-challenge after eight weeks rest): 85%
anti-mATG antibody titers (anti-mATG IgG; three cycles of methotrexate 5 mg/kg with first three monthly mATG treatments): 816,000
reduction of anti-mATG antibody responses, area under the effect curves (anti-mATG IgG; three cycles of methotrexate, five monthly mATG (FIG. 4A)): 79%
anti-rabbit IgG antibody titers (anti-mATG antibody): significantly lower
levels of pro-inflammatory cytokines MCP-1, IL-13, IL-6 and IL-12 ([2]; 24 hours after fifth alemtuzumab dose, methotrexate 5 mg/kg three days at first dose): decreased
TNF-alpha levels ([2]; methotrexate 2 mg/kg, one week after second cycle of alemtuzumab): statistically significant increase
BAFF levels ([2]; serum, 24 hours after 5th dose of alemtuzumab, with vs without methotrexate): no difference
levels of circulating CD4+ and CD8+ T cells ([3]; after fifth monthly mATG treatment, mATG alone or with one cycle of methotrexate): significantly depleted
depletion of CD4+, CD8+, T regulatory T cells and total CD19+ B cells ([3]; methotrexate alone, animals receiving an allogeneic transplant): did not deplete
depletion of CD4+, CD8+, T regulatory T cells and total CD19+ B cells ([3]; normal animals, blood and spleen): does not deplete
percentage of T regulatory cells in spleen and blood ([3]; single cycle of methotrexate, after fifth monthly mATG treatment): enhanced the ability of mATG to increase the percentage of T regulatory cells
absolute number of activated follicular and activated transitional 3 B cells ([3]; spleen, single cycle of methotrexate, around fifth mATG dose): no statistically significant decreases
anti-allograft antibody (alloantibody) levels [4]: significantly reduce; also recorded: significantly lower
